# Measurements as given in PMC7083880 (Nature Communications, 2020).
# What was measured:
# [1] = tested on: HCC-GR6 cell tumors (wild-type TP53) in nude mice; assay: In vivo tumor growth, HCC-GR6 cells in nude mice; parameters: species or system mouse; settings: force-fed daily, 5 weeks
# Method: Next, the capacity of DAP to correct UGA nonsense mutations in vivo was assessed in a mouse model. Four-week-old immunodeficient nude mice were injected with an identical number of Calu-6 cells carrying a UGA nonsense mutation in the TP53 gene, of HCC-GR6 cells having a wild-type TP53 gene or of p53-null 4T1 cells. […] The slower growth of Calu-6-cell-derived tumors in DAP-treated mice is thus likely due to rescue of p53 protein synthesis in these tumors, as expected on the basis of our cell culture experiments and as observed after western-blotting applied to protein extracts of tumors from DAP-treated mice (Supplementary Fig. 8B). Because of the small size of the Calu-6 tumors in DAP-treated mice and thus the high probability of collecting mouse cells upon tumor excision, quantitation of p53 was done in another experiment.
# To initiate tumor growth, 6-week-old nude mice received subcutaneously 10 million cells suspended in PBS. […] Tumors were measured three times weekly for 5 weeks to determine the tumor volume by the following formula: l (mm) × L (mm) × L (mm). […]
# The mice were exposed to DMSO or DAP for about five weeks and tumor size was measured three times weekly and plotted on the graph. […]
# (B) Western blot analysis of p53 protein in the Calu-6-cell tumors of the seven DMSO-exposed and seven DAP-exposed mice. […] Error bar= S.D., p-values (p) were calculated using Student's t-test. […]
# [2] = tested on: Fluc-int-UGA construct in HEK293FT cells; assay: Amino-acid identification assay (mass spectrometry); type: cell-based, human; settings: 25 µM DAP
# Excerpt: To elucidate the molecular mechanism of DAP-promoted UGA readthrough, mass spectrometry was used to identify the amino acid incorporated at the PTC position into firefly luciferase synthesized from the Fluc-int-UGA construct. […] The luciferase protein was digested with […] to generate a PTC-position-containing peptide compatible with mass spectrometry analysis. Using this approach, we found only one amino acid, tryptophan, incorporated at the PTC position in the peptide of interest (Fig. 5a).
# Firefly luciferase from HEK293FT cells transfected with the Fluc-int-UGA construct was immunoprecipitated and digested with trypsin. The MS/MS spectrum of the peptide containing the PTC position and the sequence determination are shown. […] Readthrough efficiency was determined by measuring luciferase activity in HeLa cells co-transfected with the firefly luciferase construct described in Fig. 1b and with increasing amounts of an expression vector for either FTSJ1 or CTU1 (0.5, 1, or 2 µg). […] A molecular weight marker is indicated to the left of each gel. p-values (p) were calculated using Student’s t-test. […]
# Sixty million HEK293FT cells were transfected with 120 µg Fluc-int-UGA construct with CaCl2 in HBSS buffer. […] The immunoprecipitate was subjected to 10% SDS–PAGE and then firefly luciferase was detected by Coomassie staining. […]
smiles,measurement,setting,value
"Nc1nc(N)c2[nH]cnc2n1 [DAP, 2,6-diaminopurine]","Tumor growth vs DMSO, in words",[1],no significant difference in tumor growth
same,Amino acid incorporated at the PTC position,[2],tryptophan
